Values of other authors as cited in patent US20200339511A1, “Substituted indoline derivatives as dengue viral replication inhibitors” (priority 2016, published 2020).

Test system: DENV-2
Details: analogous DENV-2 antiviral assay, reported activity; cited from earlier work

CNC(=O)c1cccc(NC(C(=O)c2c[nH]c3ccccc23)c2ccccc2)c1 (stereo not shown) [(170) of WO-2013/045516]
EC50: 440 nM
